# Test results as given in patent US8765741B2, “5,6-dihydro-1H-pyridin-2-one compounds” (Anadys Pharmaceuticals, Inc., priority 2007, dated 2014).
# pIC50: −log10 of the molar value.
# Target: NS5B polymerase (Hepatitis C virus genotype 1b, UniProt P26663)
# Experiment: biochemical
# Settings: not given
# Procedure: Compounds were tested for HCV polymerase inhibition. Assays were performed in a 96-well streptavidin-coated FlashPlate using 20 nM enzyme, 0.5 μCi of [α-^33P]GTP, 0.6 μM GTP, and 250 nM 5′biotinylated oligo (rG13)/poly rC in 20 mM Tris-HCl, pH 7.5, 5 mM MgCl2, 5 mM dithiothreitol, 0.1 g/L bovine serum albumin, and 100 U/mL RNAse inhibitor. The reaction was stopped by aspiration after 75 min at 28° C. and the plate was washed several times. After washing and drying the plate, incorporated radioactivity was counted using a Microbeta scintillation counter. IC50 values were calculated relative to the uninhibited control and inhibition data were fitted to a 4-parameter IC50 equation.
# Chain of NS5B polymerase (P26663 2420-3010): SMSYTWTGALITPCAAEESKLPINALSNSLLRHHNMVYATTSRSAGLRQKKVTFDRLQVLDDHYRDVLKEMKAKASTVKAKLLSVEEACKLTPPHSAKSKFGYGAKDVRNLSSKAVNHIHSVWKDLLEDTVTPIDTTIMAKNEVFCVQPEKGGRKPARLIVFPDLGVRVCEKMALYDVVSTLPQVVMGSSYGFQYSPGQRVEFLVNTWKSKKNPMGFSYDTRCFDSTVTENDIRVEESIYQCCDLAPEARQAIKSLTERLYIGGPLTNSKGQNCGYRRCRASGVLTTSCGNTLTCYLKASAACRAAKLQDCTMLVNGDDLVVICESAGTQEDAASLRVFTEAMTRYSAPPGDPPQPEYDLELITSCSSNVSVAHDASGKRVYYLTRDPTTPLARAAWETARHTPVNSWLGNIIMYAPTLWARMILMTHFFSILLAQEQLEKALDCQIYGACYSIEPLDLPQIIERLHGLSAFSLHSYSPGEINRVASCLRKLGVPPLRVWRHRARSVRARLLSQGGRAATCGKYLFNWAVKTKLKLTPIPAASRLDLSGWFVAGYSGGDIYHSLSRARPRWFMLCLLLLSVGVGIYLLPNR
row,Structure (SMILES),pIC50
1,"CS(=O)(=O)Nc1ccc2c(c1)S(=O)(=O)N=C(C1=C(O)[C@H]3[C@@H]4CC[C@@H](C4)[C@H]3N(Cc3ccc(F)cc3)C1=O)N2 [Example 7, N-{3-[(1S,2R,7S,8R)-3-(4-Fluoro-benzyl)-6-hydroxy-4-oxo-3-aza-tricyclo[6.2.1.0^2,7]undec-5-en-5-yl]-1,1-dioxo-1,4-dihydro-1λ^6-benzo[1,2,4]thiadiazin-7-yl}-methanesulfonamide]",6.00 to 7.00
2,"CS(=O)(=O)Nc1ccc2c(c1)S(=O)(=O)N=C(C1=C(O)[C@H]3[C@H]4CC[C@H](C4)[C@H]3N(Cc3ccc(F)cc3)C1=O)N2 [Example 5, N-{3-[(1R,2R,7S,8S)-3-(4-Fluoro-benzyl)-6-hydroxy-4-oxo-3-aza-tricyclo[6.2.1.0^2,7]undec-5-en-5-yl]-1,1-dioxo-1,4-dihydro-1λ^6-benzo[1,2,4]thiadiazin-7-yl}-methanesulfonamide]",6.00 to 7.00

# Same assay, conditions: NS5B polymerase inhibition; 20 nM enzyme, 75 min at 28° C.; read-out: IC50
row,pIC50,Structure (SMILES)
1,7.00 to 7.70,"CS(=O)(=O)Nc1ccc2c(c1)S(=O)(=O)N=C(C1=C(O)[C@H]3[C@H]4CC[C@H]([C@@H]5C[C@@H]54)[C@H]3N(Cc3ccc(F)cc3)C1=O)N2 (racemic) [Example 51, rac-N-{3-[(1R,2R,7S,8S,9S,11R)-3-[(4-Fluorophenyl)methyl]-6-hydroxy-4-oxo-3-azatetracyclo[6.3.2.0^2,7.0^9,11]tridec-5-en-5-yl]-1,1-dioxo-4H-1λ^6,2,4-benzothiadiazin-7-yl}methanesulfonamide]"
2,> 7.70,"NS(=O)(=O)Nc1ccc2c(c1)S(=O)(=O)N=C(C1=C(O)[C@@H]3[C@H]4CC[C@H](C4)[C@@H]3N(Cc3ccc(F)cc3)C1=O)N2 [Example 55, (1R,2S,7R,8S)-N-{3-[3-(4-Fluoro-benzyl)-6-hydroxy-4-oxo-3-aza-tricyclo[6.2.1.0^2,7]undec-5-en-5-yl]-1,1-dioxo-1,4-dihydro-1λ^6-benzo[1,2,4]thiadiazin-7-yl}-sulfamide]"
3,6.00 to 7.00,"Nc1ccc2c(c1)S(=O)(=O)N=C(C1=C(O)[C@@H]3[C@H]4CC[C@H](C4)[C@@H]3N(Cc3ccc(F)cc3)C1=O)N2 [Example 30, (1R,2S,7R,8S)-5-(7-Amino-1,1-dioxo-1,4-dihydro-1λ^6-benzo[1,2,4]thiadiazin-3-yl)-3-(4-fluoro-benzyl)-6-hydroxy-3-aza-tricyclo[6.2.1.0^2,7]undec-5-en-4-one]"
4,7.00 to 7.70,"CC(C)CN1C(=O)C(C2=NS(=O)(=O)c3cc(NS(C)(=O)=O)ccc3N2)=C(O)[C@@H]2[C@H]3CC[C@H](C3)[C@@H]21 [Example 57, (1R,2S,7R,8S)-N-[3-(6-Hydroxy-3-isobutyl-4-oxo-3-aza-tricyclo[6.2.1.0^2,7]undec-5-en-5-yl)-1,1-dioxo-1,4-dihydro-1λ^6-benzo[1,2,4]thiadiazin-7-yl]-methanesulfonamide]"
5,7.00 to 7.70,"CC(C)CCN1C(=O)C(C2=NS(=O)(=O)c3cc(NS(=O)(=O)C4CC4)ccc3N2)=C(O)C2C3C=CC(C3)C21 (racemic) [Example 45, (rac-di-exo)-Cyclopropanesulfonic acid{3-[6-hydroxy-3-(3-methyl-butyl)-4-oxo-3-aza-tricyclo[6.2.1.0^2,7]undeca-5,9-dien-5-yl]-1,1-dioxo-1,4-dihydro-1λ^6-benzo[1,2,4]thiadiazin-7-yl}-amide]"
6,6.00 to 7.00,"O=C1C(C2=NS(=O)(=O)c3cc(N4CCCS4(=O)=O)ccc3N2)=C(O)[C@@H]2[C@H]3CC[C@H](C3)[C@@H]2N1Cc1ccc(F)cc1 [Example 26, (1R,2S,7R,8S)-5-[7-(1,1-Dioxo-1λ^6-isothiazolidin-2-yl)-1,1-dioxo-1,4-dihydro-1λ^6-benzo[1,2,4]thiadiazin-3-yl]-3-(4-fluoro-benzyl)-6-hydroxy-3-aza-tricyclo[6.2.1.0^2,7]undec-5-en-4-one]"
7,7.00 to 7.70,"CS(=O)(=O)Nc1ccc2c(c1)S(=O)(=O)N=C(C1=C(O)C3C4C=CC(C4)C3N(Cc3ccc(F)cc3)C1=O)N2 (racemic) [Example 10, (rac-di-endo)-N-{3-[3-(4-Fluoro-benzyl)-6-hydroxy-4-oxo-3-aza-tricyclo[6.2.1.0^2,7]undeca-5,9-dien-5-yl]-1,1-dioxo-1,4-dihydro-1λ^6-benzo[1,2,4]thiadiazin-7-yl}-methanesulfonamide]"
8,7.00 to 7.70,"CS(=O)(=O)Nc1cnc2c(c1)S(=O)(=O)N=C(C1=C(O)[C@@H]3[C@H]4CC[C@H](C4)[C@@H]3N(Cc3ccc(F)cc3)C1=O)N2 [Example 62, N-{3-[(1R,2S,7R,8S)-3-(4-Fluoro-benzyl)-6-hydroxy-4-oxo-3-aza-tricyclo[6.2.1.0^2,7]undec-5-en-5-yl]-1,1-dioxo-1,4-dihydro-1λ^6-pyrido[2,3-e][1,2,4]thiadiazin-7-yl}-methanesulfonamide]"
9,4.00 to 6.00,"CC(C)CCN1C(=O)C(C2=NS(=O)(=O)c3cc(I)ccc3N2)=C(O)C2C3CCC(O3)C21 (racemic) [Example 33, (rac-di-exo)-6-Hydroxy-5-(7-iodo-1,1-dioxo-1,4-dihydro-1λ^6-benzo[1,2,4]thiadiazin-3-yl)-3-(3-methyl-butyl)-11-oxa-3-aza-tricyclo[6.2.1.0^2,7]undec-5-en-4-one]"
10,7.00 to 7.70,"CS(=O)(=O)Nc1ccc2c(c1)S(=O)(=O)N=C(C1=C(O)C3C4C=CC(C4)C3N(Cc3ccc(F)cc3)C1=O)N2 (racemic) [Example 9, (rac-di-exo)-N-{3-[3-(4-Fluoro-benzyl)-6-hydroxy-4-oxo-3-aza-tricyclo[6.2.1.0^2,7]undeca-5,9-dien-5-yl]-1,1-dioxo-1,4-dihydro-1λ^6-benzo[1,2,4]thiadiazin-7-yl}-methanesulfonamide]"
11,6.00 to 7.00,"O=C1C(C2=NS(=O)(=O)c3cc(NS(=O)(=O)c4cccnc4)ccc3N2)=C(O)C2C([C@@H]3CC[C@H]2C3)N1Cc1ccc(F)cc1 (stereo partly drawn) [Example 54, Pyridine-3-sulfonic acid{3-[(1R,2S,7R,8S)-3-(4-fluoro-benzyl)-6-hydroxy-4-oxo-3-aza-tricyclo[6.2.1.0^2,7]undec-5-en-5-yl]-1,1-dioxo-1,4-dihydro-1λ^6-benzo[1,2,4]thiadiazin-7-yl}-amide]"
12,7.00 to 7.70,"O=C1C(C2=NS(=O)(=O)c3cc(NS(=O)(=O)C4CC4)ccc3N2)=C(O)C2C([C@@H]3CC[C@H]2C3)N1Cc1ccc(F)cc1 (stereo partly drawn) [Example 35, Cyclopropane sulfonic acid{3-[(1R,2S,7R,8S)-3-(4-fluoro-benzyl)-6-hydroxy-4-oxo-3-aza-tricyclo[6.2.1.0^2,7]undec-5-en-5-yl]-1,1-dioxo-1,4-dihydro-1λ^6-benzo[1,2,4]thiadiazin-7-yl}-amide]"
13,6.00 to 7.00,"O=C1C(C2=NS(=O)(=O)c3cccnc3N2)=C(O)[C@@H]2[C@H]3CC[C@H](C3)[C@@H]2N1Cc1ccc(F)cc1 [Example 63, (1R,2S,7R,8S)-5-(1,1-Dioxo-1,4-dihydro-1λ^6-pyrido[2,3-e][1,2,4]thiadiazin-3-yl)-3-(4-fluoro-benzyl)-6-hydroxy-3-aza-tricyclo[6.2.1.0^2,7]undec-5-en-4-one]"
14,> 7.70,"CS(=O)(=O)Nc1ccc2c(c1)S(=O)(=O)C=C(C1=C(O)C3C4C=CC(C4)C3N(Cc3ccc(F)cc3)C1=O)N2 (racemic) [Example 37, (rac-di-exo)-N-{3-[3-(4-Fluoro-benzyl)-6-hydroxy-4-oxo-3-aza-tricyclo[6.2.1.0^2,7]undeca-5,9-dien-5-yl]-1,1-dioxo-1,4-dihydro-1λ^6-benzo[1,4]thiazin-7-yl}-methanesulfonamide]"
